In patent US9789191B2, “Aqueous drug delivery system” (SOLIXA TECHNOLOGIES, INC., priority 2010, dated 2017):

Test: Comparative accelerated storage study of ASA at 45° C. for 3 weeks (HPLC)
Type: physicochemical
Conditions: in distilled water, 143 mg ASA in 8 oz
Procedure: Accelerated storage studies were conducted to examine the stability of ASA in distilled water, ASA in acidified (1% citric acid) distilled water, and of a molecular inclusion complex of ASA-βCD (in distilled water). Duplicate samples of each treatment were made containing 143 mg of ASA in 8 oz of distilled water. For the treatment containing the ASA-βCD complex, a 2:1 ratio of βCD to ASA was used as described in part I of the prototype formulation procedure outlined above. The treatments were stored at 45° C. for 3 weeks to determine the rate of hydrolysis of ASA to its breakdown product salicylic acid. Analysis of degradation products was performed using an Agilent Technologies 1200 series HPLC with a PDA (photodiode array) detector, incorporating a Phenominex C18-2 column (25 cm×0.39 cm i.d., 5 μm particle size). Solvent system A) H2O, Acetonitrile, Phosphoric Acid (95.45:4.5:0.05), and B) H2O, Acetonitrile, Phosphoric Acid (49.95:50:0.05). Solvent B ramped from 10%-80% over 20 minutes. Stability was verified using peak area, which was used to determine the overall percentage of breakdown of ASA to salicylic acid. […] The sensory profile of the βCD-ASA solution was evaluated.

- breakdown of ASA to salicylic acid: nearly quantitative breakdown
SMILES: CC(=O)Oc1ccccc1C(=O)O [ASA, acetylsalicylic acid]
